Target: SARS-CoV-2 3CL-protease (Severe acute respiratory syndrome coronavirus 2, UniProt P0DTD1)
Assay: SARS-CoV-2 3C-Like (3CL) Protease Fluorescence Assay (FRET)
Assay type: biochemical
Settings: SARS-CoV-2 3CL-protease 10 nM, test compounds 0-10 μM, duplicate, read-out: IC50

SMILES	IC50 [nM]
C[C@H](NC(=O)c1ccc(F)cc1)C(=O)N(C)[C@@H](Cc1ccccc1)C(=O)N1C[C@]2(C[C@H]1C#N)C(=O)Nc1ccccc12 [Example 270]	< 100
CCC(F)(F)C(=O)N[C@@H](C)C(=O)N(C)[C@@H](CC(C)C)C(=O)N1C[C@]2(C[C@H]1C#N)C(=O)Nc1ccccc12 [Example 271]	< 100
CC(C)C[C@@H](C(=O)N1C[C@]2(C[C@H]1C#N)C(=O)Nc1ccccc12)N(C)C(=O)[C@H](C)NC(=O)C1(F)CCC1 [Example 272]	< 100
CC(C)C[C@@H](C(=O)N1C[C@]2(C[C@H]1C#N)C(=O)Nc1ccccc12)N(C)C(=O)[C@H](C)NC(=O)C(C)(F)F [Example 273]	< 100
C[C@H](NC(=O)OCc1ccccc1)C(=O)N(C)[C@@H](Cc1ccccc1)C(=O)N1C[C@]2(C[C@H]1C#N)C(=O)Nc1ccccc12 [Example 274]	< 100
CC(C)C[C@@H](C(=O)N1C[C@]2(C[C@H]1C#N)C(=O)Nc1ccccc12)N(C)C(=O)[C@H](C)NC(=O)C1(F)C(F)(F)C1(F)F [Example 275]	< 100
CC(C)C[C@@H](C(=O)N1C[C@]2(C[C@H]1C#N)C(=O)Nc1ccccc12)N(C)C(=O)[C@H](C)NC(=O)C(F)(F)C(C)C [Example 276]	< 100
CCCC(F)(F)C(=O)N[C@@H](C)C(=O)N(C)[C@@H](CC(C)C)C(=O)N1C[C@]2(C[C@H]1C#N)C(=O)Nc1ccccc12 [Example 277]	< 100
CC(C)C[C@@H](C(=O)N1C[C@]2(C[C@H]1C#N)C(=O)Nc1ccccc12)N(C)C(=O)[C@H](C)NC(=O)C12CC(F)(C1)C2 [Example 278]	< 100
CC(C)C[C@@H](C(=O)N1C[C@]2(C[C@H]1C#N)C(=O)Nc1ccccc12)N(C)C(=O)[C@H](C)NC(=O)C12CC(C(F)(F)F)(C1)C2 [Example 279]	< 100
C[C@H](NC(=O)c1ccc2c(c1)OC(F)(F)O2)C(=O)N(C)[C@@H](CC(C)(C)C)C(=O)N1C[C@]2(C[C@H]1C#N)C(=O)Nc1ccccc12 [Example 280]	< 100
C[C@H](NC(=O)c1cc2ccccc2n1-c1ccccc1)C(=O)N(C)[C@@H](CC(C)(C)C)C(=O)N1C[C@]2(C[C@H]1C#N)C(=O)Nc1ccccc12 [Example 281]	< 100
C[C@H](NC(=O)c1ccccc1-c1ccccc1)C(=O)N(C)[C@@H](CC(C)(C)C)C(=O)N1C[C@]2(C[C@H]1C#N)C(=O)Nc1ccccc12 [Example 282]	< 100
CC(C)C[C@@H](C(=O)N1C[C@]2(C[C@H]1C#N)C(=O)Nc1ccccc12)N(C)C(=O)[C@H](C)NC(=O)C(C)(C)C(F)(F)F [Example 283]	< 100
C[C@H](NC(=O)c1cccc2cc(Cl)ccc12)C(=O)N(C)[C@@H](CC(C)(C)C)C(=O)N1C[C@]2(C[C@H]1C#N)C(=O)Nc1ccccc12 [Example 284]	< 100
CC(C)C[C@@H](C(=O)N1C[C@]2(C[C@H]1C#N)C(=O)Nc1ccccc12)N(C)C(=O)[C@H](C)NC(=O)C(F)(F)C1CC1 [Example 285]	< 100
C[C@H](NC(=O)c1ccc(C(F)(F)F)cc1)C(=O)N(C)[C@@H](CC(C)(C)C)C(=O)N1C[C@]2(C[C@H]1C#N)C(=O)Nc1ccccc12 [Example 286]	< 100
C[C@H](NC(=O)c1ccc(S(C)(=O)=O)cc1)C(=O)N(C)[C@@H](CC(C)(C)C)C(=O)N1C[C@]2(C[C@H]1C#N)C(=O)Nc1ccccc12 [Example 287]	< 100
C[C@H](NC(=O)C(C)(F)F)C(=O)N(C)[C@@H](CC(C)(C)C)C(=O)N1C[C@]2(C[C@H]1C#N)C(=O)Nc1ccccc12 [Example 288]	< 100
C[C@H](NC(=O)c1ccc(-c2ccccc2)cc1)C(=O)N(C)[C@@H](CC(C)(C)C)C(=O)N1C[C@]2(C[C@H]1C#N)C(=O)Nc1ccccc12 [Example 289]	< 100
C[C@H](NC(=O)c1cccc(-c2ccccc2)c1)C(=O)N(C)[C@@H](CC(C)(C)C)C(=O)N1C[C@]2(C[C@H]1C#N)C(=O)Nc1ccccc12 [Example 290]	< 100
CC(C)C[C@@H](C(=O)N1C[C@]2(C[C@H]1C#N)C(=O)Nc1ccccc12)N(C)C(=O)[C@H](C)NC(=O)c1ccc(C(F)(F)F)cc1C(F)(F)F [Example 291]	< 100
C[C@H](NC(=O)c1cc(F)cc2ccccc12)C(=O)N(C)[C@@H](CC(C)(C)C)C(=O)N1C[C@]2(C[C@H]1C#N)C(=O)Nc1ccccc12 [Example 292]	< 100
COc1ccc(C(=O)N[C@@H](C)C(=O)N(C)[C@@H](CC(C)(C)C)C(=O)N2C[C@]3(C[C@H]2C#N)C(=O)Nc2ccccc23)c2ccccc12 [Example 293]	< 100
C[C@H](NC(=O)c1cccc2ccc(Cl)cc12)C(=O)N(C)[C@@H](CC(C)(C)C)C(=O)N1C[C@]2(C[C@H]1C#N)C(=O)Nc1ccccc12 [Example 294]	< 100
CC(C)C[C@@H](C(=O)N1C[C@]2(C[C@H]1C#N)C(=O)Nc1ccccc12)N(C)C(=O)[C@H](C)NC(=O)c1cccc2cc(F)ccc12 [Example 295]	< 100
CC(C)C[C@@H](C(=O)N1C[C@]2(C[C@H]1C#N)C(=O)Nc1ccccc12)N(C)C(=O)[C@H](C)NC(=O)C1(F)CC1 [Example 296]	< 100

SMILES	IC50 [nM]
CC(C)C[C@@H](C(=O)N1C[C@]2(C[C@H]1C#N)C(=O)Nc1ccccc12)N(C)C(=O)[C@H](C)NC(=O)C1(C(F)(F)F)CC1 [Example 297]	< 100
CC(C)C[C@@H](C(=O)N1C[C@]2(C[C@H]1C#N)C(=O)Nc1ccccc12)N(C)C(=O)[C@H](C)NC(=O)C12CC3CC(CC(C3)C1)C2 [Example 298]	< 100
CC(N[C@@H](C)C(=O)N(C)[C@@H](CC(C)(C)C)C(=O)N1C[C@]2(C[C@H]1C#N)C(=O)Nc1ccccc12)C(F)(F)F (stereo partly drawn) [Example 299]	< 100
C[C@H](NC(=O)c1c(F)c(F)c(F)c(F)c1F)C(=O)N(C)[C@@H](CC(C)(C)C)C(=O)N1C[C@]2(C[C@H]1C#N)C(=O)Nc1ccccc12 [Example 300]	< 100
CC(C)C[C@@H](C(=O)N1C[C@]2(C[C@H]1C#N)C(=O)Nc1ccccc12)N(C)C(=O)[C@H](C)NC(=O)c1c(F)c(F)c(F)c(F)c1F [Example 301]	< 100
C[C@H](NC(c1ccc(F)cc1)C(F)(F)F)C(=O)N(C)[C@@H](CC(C)(C)C)C(=O)N1C[C@]2(C[C@H]1C#N)C(=O)Nc1ccccc12 (stereo partly drawn) [Example 302]	< 100
CC(C)(C)C[C@H](NC(=O)[C@H](CC1CC1)NC(=O)c1ccc(C2CCCCC2)cc1)C(=O)N1C[C@]2(C[C@H]1C#N)C(=O)Nc1ccccc12 [Example 303]	< 100
CC(C)(C)C[C@H](NC(=O)[C@H](CC1CC1)NC(=O)c1ccc(C(C)(C)C)cc1)C(=O)N1C[C@]2(C[C@H]1C#N)C(=O)Nc1ccccc12 [Example 304]	< 100
CC(C)(C)C[C@H](NC(=O)[C@H](CC1CC1)NC(=O)c1cc(F)c2nn(C3CC3)cc2c1)C(=O)N1C[C@]2(C[C@H]1C#N)C(=O)Nc1ccccc12 [Example 305]	< 100
CC(C)(C)C[C@H](NC(=O)[C@H](CC1CC1)NC(=O)c1cnn(-c2ccc(C(F)(F)F)cc2)c1)C(=O)N1C[C@]2(C[C@H]1C#N)C(=O)Nc1ccccc12 [Example 306]	< 100
C[C@@H](NC(=O)OCc1ccccc1)C(=O)N(C)[C@@H](CC(C)(C)C)C(=O)N1C[C@]2(C[C@H]1C#N)C(=O)Nc1ccccc12 [Example 307]	< 100
C[C@H](NC(=O)C(F)(F)c1ccc(F)cc1)C(=O)N(C)[C@@H](CC(C)(C)C)C(=O)N1C[C@]2(C[C@H]1C#N)C(=O)Nc1ccccc12 [Example 308]	< 100
C[C@H](NC(=O)C12CC(C)(C1)C2)C(=O)N(C)[C@@H](CC(C)(C)C)C(=O)N1C[C@]2(C[C@H]1C#N)C(=O)Nc1ccccc12 [Example 309]	< 100
C[C@H](NC(=O)C12CC3CC(CC(C3)C1)C2)C(=O)N(C)[C@@H](CC(C)(C)C)C(=O)N1C[C@]2(C[C@H]1C#N)C(=O)Nc1ccccc12 [Example 310]	< 100
CC(C)(C)C[C@H](NC(=O)[C@H](CC1CC1)NC(=O)OC1CC1)C(=O)N1C[C@]2(C[C@H]1C#N)C(=O)Nc1ccccc12 [Example 311]	< 100
CC(C)(C)C[C@H](NC(=O)[C@H](CC1CC1)NC(=O)c1cc(F)c(F)c(F)c1)C(=O)N1C[C@]2(C[C@H]1C#N)C(=O)Nc1ccccc12 [Example 312]	< 100
CC(C)(C)C[C@H](NC(=O)[C@H](CC1CC1)NS(=O)(=O)c1ccc(F)cc1)C(=O)N1C[C@]2(C[C@H]1C#N)C(=O)Nc1ccccc12 [Example 313]	< 100
CC(C)(C)C[C@H](NC(=O)[C@H](CC1CC1)NS(=O)(=O)c1cnn(-c2ccc(F)cc2)c1)C(=O)N1C[C@]2(C[C@H]1C#N)C(=O)Nc1ccccc12 [Example 314]	100 to 1000
CC(C)(C)C[C@H](NC(=O)[C@H](CC1CC1)NC(=O)c1cccc2cc(F)ccc12)C(=O)N1C[C@]2(C[C@H]1C#N)C(=O)Nc1ccccc12 [Example 315]	< 100
CC(C)(C)C[C@H](NC(=O)[C@H](CC1CC1)NC1CCCCC1)C(=O)N1C[C@]2(C[C@H]1C#N)C(=O)Nc1ccccc12 [Example 316]	100 to 1000
CC(C)(C)C[C@H](NC(=O)[C@H](CC1CC1)NC(=O)C12CC(C)(C1)C2)C(=O)N1C[C@]2(C[C@H]1C#N)C(=O)Nc1ccccc12 [Example 317]	< 100
CC(C)(C)C[C@H](NC(=O)[C@H](CC1CC1)NC(=O)C1CC2CCC1C2)C(=O)N1C[C@]2(C[C@H]1C#N)C(=O)Nc1ccccc12 (stereo partly drawn) [Example 318]	< 100
CC(C)(C)C[C@H](NC(=O)[C@H](CC1CC1)NC(=O)C12CC3CC(CC(C3)C1)C2)C(=O)N1C[C@]2(C[C@H]1C#N)C(=O)Nc1ccccc12 [Example 319]	< 100
CC(C)(C)C[C@H](NC(=O)[C@H](CC1CC1)NC(=O)C1CCC1)C(=O)N1C[C@]2(C[C@H]1C#N)C(=O)Nc1ccccc12 [Example 320]	< 100
CC(C)(C)C[C@H](NC(=O)[C@H](CC1CC1)NC(=O)C1CC2(CCC2)C1)C(=O)N1C[C@]2(C[C@H]1C#N)C(=O)Nc1ccccc12 [Example 321]	< 100
CC(C)(C)C[C@H](NC(=O)[C@H](CC1CC1)NC(=O)C1CCC2(CC1)CC2)C(=O)N1C[C@]2(C[C@H]1C#N)C(=O)Nc1ccccc12 [Example 322]	< 100
CC(C)(C)C[C@H](NC(=O)[C@H](CC1CC1)NC(=O)c1cnn(C2CC2)c1)C(=O)N1C[C@]2(C[C@H]1C#N)C(=O)Nc1ccccc12 [Example 323]	< 100
